Literature values as cited in US12127968B2, “Methods and devices for controlled delivery” (Femasys Inc., priority 2018, dated 2024).
Structures can show the parent of a compound that is named as a salt.

Tested on: ovulation
Conditions: patients whose only factor is ovulatory dysfunction

In the case of `CCN(CC)CCOc1ccc(C(=C(Cl)c2ccccc2)c2ccccc2)cc1` [Clomiphene citrate], the “patients in whom normal ovulation is restored” value is listed as “about 80%”.
